The text below walks through data of patent US20240368174A1, “Antiviral Heterocyclic Compounds” (Enanta Pharmaceuticals, Inc., priority 2023, published 2024).

Assay [1] deals with HMPV clinical isolate A2 strain TN 94-49. As to the kind of experiment: HMPV antiviral assay, Method 2 (LLC-MK2 cells with CP-100-356, ATP-Lite). It is filed as cell-based. Conditions: human metapneumovirus; hMPV A2 TN/94-49, LLC-MK2 cells with CP-100-356, Method 2. A digest of the protocol:
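EC50 comes from a four-parameter fit of percent cell viability (ATP-Lite, normalized to virus-only and cell-only wells) after 7 days at 37 °C. Infection used HMPV A2 TN 94-49 at MOI 0.16 in LLC-MK2 cells, with 2 μM P-gp inhibitor CP-100-356 and 2 μg/mL TPCK-trypsin final; dose range 200 nM top, 2.5-fold, 10 points, duplicate.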

Assay [2] relates to genotype A, “Long” strain RSV. Nature of the assay: RSV-A assay (CPE, ATPlite readout in Hep-2 cells). The conditions noted are these: human respiratory syncytial virus, activity class. It is filed as cell-based, Human respiratory syncytial virus. The text has this:
Hep-2 cells, (originally derived from tumors grown in irradiated-cortisonised weanling rats that had been injected with epidermoid carcinoma tissue from the larynx of a person, but later found to be indistinguishable from HeLa cells by PCR DNA analysis), were used for the culturing of genotype A, “Long” strain RSV. Flasks were inoculated with RSV and viral stocks were collected once cytopathic effect (CPE) was greater than 90%. Viral stocks in 25% sucrose media were snap frozen using liquid nitrogen to increase viral stability. Viral stock titers were quantified by tissue culture infectious dose 50% (TCID50) using 8,000 cells per well and 3-fold viral dilutions across a 96-well plate, cultured for 4 days. Viral stock titers were also quantified by a plaque forming unit assay, as described elsewhere.
Following extensive parameter testing, the final assay is run as follows: Hep-2 cells are seeded into the inner 60 wells of a 96-well plate at 8,000 cells per well in a volume of 50 μL using Growth Media (DMEM without phenol red, 1% L-Glut, 1% Penn/Strep, 1% nonessential amino acids, 10% heat-inactivated FBS). 2-fold serial dilutions of control and test compounds are added to the wells in duplicate in a total volume of 25 μL. Viral stock is then added to the wells at a multiplicity of infection (MOI) of 0.1 in a volume of 25 μL, bringing the total volume of each well to 100 μL. The MOI is calculated using the PFU/mL, or TCID50 if unavailable. Each 96-well plate has a control column of 6 wells with cells and virus but no compound (negative control, max CPE), a column with cells but no compound or virus (positive control, minimum CPE), and a column with no cells or virus or compound (background plate/reagent control). The control wells with cells but no virus are given an additional 25 μL of growth media containing an equal quantity of sucrose as those wells receiving the viral stock in order to keep consistent in media and volume conditions. The outer wells of the plate are filled with 125 μL of moat media (DMEM, 1% Penn/Strep) to act as a thermal and evaporative moat around the test wells. Following a 5-day incubation period, the plates are read using ATPlite (50 uL added per well), which quantifies the amount of ATP (a measure of cell health) present in each well. Assay plates are read using the Envision luminometer. […] EC50 ranges are as follows: A<0.2 μM; B>0.2 μM.
A general note: ATP-based viability assays read luminescence as a measure of living cells.

For orientation: EC50 means the concentration needed to bring the measured effect to its halfway point. Consider `C[C@]1(C(N)=O)COc2c1cc([C@@](O)(CNC(=O)c1cc(Cl)c3nn(C(F)F)cc3c1)c1ccccc1)nc2-c1cc(Cl)c(F)cc1F` [Example 102], for which the EC50 in assay [1] was more than 200 nM; in assay [2], less than 200 nM.
For the compound `COc1cc(C(=O)NC[C@](O)(c2cc3c(c(-c4ccc5c(c4Cl)OC(F)(F)O5)n2)OC[C@]3(C)C(N)=O)C2CC2)cc2cc(Cl)cnc12` [Example 105], the concentration for a half-maximal effect (EC50) in assay [1] and in assay [2] was less than 200 nM in each case.
For the compound `C[C@]1(C(N)=O)COc2c1cc([C@@](O)(CNC(=O)c1cc(OC3CC3)c3ncc(Cl)cc3c1)C1CC1)nc2-c1ccc2c(c1Cl)OC(F)(F)O2` [Example 106], the EC50 in assay [1] and in assay [2] was less than 200 nM throughout.
On to `COc1cc(C(=O)NC[C@](O)(c2cc3c(c(-c4ccc5c(c4)OC(F)(F)O5)n2)OC[C@]3(C)C(N)=O)C2CC2)cc2cc(Cl)cnc12` [Example 107], for which the EC50 in assay [1] and in assay [2] was less than 200 nM each time.
`C[C@]1(C(N)=O)COc2c1cc([C@@](O)(CNC(=O)c1cc(OC3CC3)c3ncc(Cl)cc3c1)C1CC1)nc2-c1ccc2c(c1)OC(F)(F)O2` [Example 108]: the EC50 in assay [1] and in assay [2] was less than 200 nM in each case.
`COc1cc(C(=O)NC[C@](O)(c2cc3c(c(-c4ccc(F)c(Cl)c4)n2)OC[C@]3(C)C(N)=O)C2CC2)cc2oc(C3CC3)nc12` [Example 111]: the EC50 in assay [1] is more than 200 nM; in assay [2] it was less than 200 nM.
As for `COc1cc(C(=O)NC[C@](O)(c2cc3c(c(-c4cc(F)c(F)cc4F)n2)OC[C@]3(C)C(N)=O)C2CC2)cc2cc(Cl)nnc12` [Example 114], the EC50 in assay [1] and in assay [2] was less than 200 nM in each case.
`COc1cc(C(=O)NC[C@](O)(c2cc3c(c(-c4cc(F)c(F)cc4F)n2)OC[C@]3(C)C(N)=O)C2CC2)cn2cc(C3CC3)nc12` [Example 116]: the EC50 in assay [1] and in assay [2] was less than 200 nM each time.
Take `C[C@]1(C(N)=O)COc2c1cc([C@@](O)(CNC(=O)c1cc(Cl)c3[nH]ncc3c1)C1CC1)nc2-c1cc(F)c(F)cc1F` [Example 119]: the results for the EC50 in assay [1] and in assay [2] were more than 200 nM and less than 200 nM, respectively.
The like results for `COc1cc(C(=O)NC[C@](O)(c2cc3c(c(-c4ccnc(F)c4Cl)n2)OC[C@]3(C)C(N)=O)C2CC2)cc2cn(C3CC3)nc12` [Example 122] were, in that order, less than 200 nM and less than 200 nM.
Take `COc1cc(C(=O)NC[C@](O)(c2cc3c(c(-c4cc(F)c(F)cc4F)n2)OC[C@]3(C)C(N)=O)C2CC(F)(F)C2)cc2cn(C3(F)CC3)nc12` [Example 123]: the EC50 in assay [1] and in assay [2] was less than 200 nM each time.
Consider `COc1cc(C(=O)NC[C@](O)(c2cc3c(c(-c4cc(F)c(F)cc4F)n2)OC[C@]3(C)C(N)=O)C2CC(F)(F)C2)cc2oc(C3CC3)nc12` [Example 124], for which the EC50 in assay [1] and in assay [2] was less than 200 nM in each case.
`COc1cc(C(=O)NC[C@](O)(c2cc3c(c(-c4cc(F)c(F)cc4F)n2)OC[C@]3(C)C(N)=O)C2CC2)ccc1OC[C@@H](C)O` [Example 125]: the EC50 in assay [1] was more than 200 nM; in assay [2], less than 200 nM.
As to `CNCC1([C@](O)(CNC(=O)c2cc(OC)c3nn(C4CC4)cc3c2)c2cc3c(c(-c4cc(Cl)c(F)cc4F)n2)OC[C@]3(C)C(N)=O)CC1` [Example 211], the half-maximal effective concentration (EC50) in assay [1] and in assay [2] was more than 200 nM in each case.
On to `COc1cc(C(=O)NC[C@](O)(c2cc3c(c(-c4cc(Cl)c(F)cc4F)n2)OC[C@]3(C)C(N)=O)C2(CF)CC2)cc2cn(C3CC3)nc12` [Example 212], for which the EC50 is more than 200 nM in assay [1] and less than 200 nM in assay [2].
`COc1cc(C(=O)NC[C@@](O)(CN(C)C)c2cc3c(c(-c4cc(Cl)c(F)cc4F)n2)OC[C@]3(C)C(N)=O)cc2cn(C3CC3)nc12` [Example 238]: the 50% effective concentration (EC50) was more than 200 nM in assay [1] and less than 200 nM in assay [2].
For `COc1cc(C(=O)NCC(O)(CC2CC2)c2cc3c(c(-c4cc(Cl)c(F)cc4F)n2)OC[C@]3(C)C(N)=O)cc2cn(C3CC3)nc12` (stereo partly shown) [Example 239], in that order: more than 200 nM and less than 200 nM.
Regarding `COc1cc(C(=O)NC[C@@](O)(CC#N)c2cc3c(c(-c4cc(Cl)c(F)cc4F)n2)OC[C@]3(C)C(N)=O)cc2cn(C3CC3)nc12` [Example 240], the EC50 was more than 200 nM in assay [1] and less than 200 nM in assay [2].
Consider `C[C@]1(C(N)=O)COc2c1cc([C@@](O)(CNC(=O)c1ccc3nc(C4CC4)oc3c1)C1CC1)nc2-c1cc(C(F)(F)F)c(F)cc1F` [Example 306], for which the EC50 in assay [1] and in assay [2] was less than 200 nM in each case.
Take `COc1cc(C(=O)NC[C@](O)(c2cc3c(c(-c4cc(C(F)(F)F)c(F)cc4F)n2)OC[C@]3(C)C(N)=O)C2CC2)cc2cn(C3(F)CC3)nc12` [Example 309]: the EC50 in assay [1] and in assay [2] was less than 200 nM throughout.
For `COc1cc(C(=O)NC[C@](O)(c2cc3c(c(-c4cc(C(F)(F)F)c(F)cc4F)n2)OC[C@]3(C)C(N)=O)C2CC2)cc2cn(C(F)F)nc12` [Example 310], the half-maximal effective concentration (EC50) in assay [1] and in assay [2] was less than 200 nM in each case.
With `COc1cc(C(=O)NC[C@](O)(c2cc3c(c(-c4ccc(F)c(Cl)c4Cl)n2)OC[C@]3(C)C(N)=O)C2CC2)cc2oc(C3CC3)nc12` [Example 318], the EC50 in assay [1] and in assay [2] was less than 200 nM in each case.
Turning to `C[C@]1(C(N)=O)COc2c1cc([C@@](O)(CNC(=O)c1ccc3nc(C4CC4)oc3c1)C1CC1)nc2-c1ccc(F)c(Cl)c1Cl` [Example 319], the EC50 in assay [1] and in assay [2] was less than 200 nM throughout.
For `COc1cc(C(=O)NC[C@](O)(c2cc3c(c(-c4ccc(F)c(Cl)c4Cl)n2)OC[C@]3(C)C(N)=O)C2CC2)cc2cc(Cl)cnc12` [Example 320], the EC50 in assay [1] and in assay [2] was less than 200 nM each time.
In the case of `C[C@]1(C(N)=O)COc2c1cc([C@@](O)(CNC(=O)c1cc(OC3CC3)c3ncc(Cl)cc3c1)C1CC1)nc2-c1ccc(F)c(Cl)c1Cl` [Example 321], the EC50 in assay [1] and in assay [2] was less than 200 nM in each case.
As for `COc1cc(C(=O)NC[C@](O)(c2cc3c(c(-c4ccnc(C)c4Cl)n2)OC[C@]3(C)C(N)=O)C2CC2)cc2cn(C3(F)CC3)nc12` [Example 754], in assay [2], the EC50 is less than 200 nM.
As for `COc1cc(C(=O)NC[C@](O)(c2cc3c(c(-c4ccnc(C)c4Cl)n2)OC[C@]3(C)C(N)=O)C2CC2)cc2oc(C3CC3)nc12` [Example 755], the EC50 in assay [2] is less than 200 nM.
Same read-out and setting: for `COc1cc(C(=O)NC[C@](O)(c2cc3c(c(-c4cncc(Cl)c4Cl)n2)OC[C@]3(C)C(N)=O)C2CC2)cc2cn(C(F)F)nc12` [Example 772] the value was less than 200 nM; for `COc1cc(C(=O)NC[C@](O)(c2cc3c(c(-c4cncc(Cl)c4Cl)n2)OC[C@]3(C)C(N)=O)C2CC2)cc2cn(C3(F)CC3)nc12` [Example 773], less than 200 nM.
Still for that read-out and setting: the result for `COc1cc(C(=O)NC[C@](O)(c2cc3c(c(-c4cncc(Cl)c4Cl)n2)OC[C@]3(C)C(N)=O)C2CC2)cc2oc(C3CC3)nc12` [Example 774] reads less than 200 nM; that for `COc1cc(C(=O)NC[C@](O)(c2cc3c(c(-c4ccnc(C(F)(F)F)c4Cl)n2)OC[C@]3(C)C(N)=O)C2(F)CC2)cc2cn(C3CC3)nc12` [Example 784], less than 200 nM.
`COc1cc(C(=O)NC[C@](O)(c2cc3c(c(-n4ncc5c(F)cccc54)n2)OC[C@]3(C)C(N)=O)C(F)(F)F)cc2cn(C3CC3)nc12` [Example 830] gave an EC50 in assay [2] of less than 200 nM.
For the compound `COc1cc(C(=O)NC[C@](O)(c2cc3c(c(-n4ccc5ccc(F)cc54)n2)OC[C@]3(C)C(N)=O)C(F)(F)F)cc2cn(C3CC3)nc12` [Example 853], in assay [2], the EC50 was less than 200 nM.
Compound `COc1cc(C(=O)NC[C@](O)(c2cc3c(c(-n4ccc5cccc(F)c54)n2)OC[C@]3(C)C(N)=O)C(F)(F)F)cc2cn(C3CC3)nc12` [Example 854] had an EC50 in assay [2] of less than 200 nM.
`COc1cc(C(=O)NC[C@](O)(c2cc3c(c(-n4ccc5c6c(ccc54)OC(F)(F)O6)n2)OC[C@]3(C)C(N)=O)C2CC2)cc2cn(C3CC3)nc12` [Example 855] displayed an EC50 in assay [2] of less than 200 nM.
Compound `COc1cc(C(=O)NC[C@@](O)(c2ccnc(N(C)C)c2)c2cc3c(c(-c4cc(Cl)c(F)cc4F)n2)OC[C@]3(C)C(N)=O)cc2cn(C3CC3)nc12` [Example 884] had an EC50 in assay [2] of less than 200 nM.
